The numbers were not newly measured in patent US12564203B2, “Coating composition comprising pH-sensitive polymer” (CJ CHEILJEDANG CORPORATION, priority 2020, dated 2026), which cites them from elsewhere.

The conditions of this data set: degree of hydrophilicity (hydrophobicity) of an amino acid.

Consider `N=C(N)NCCC[C@H](N)C(=O)O` [arginine], for which the hydropathy index is given as −4.5.

As to `CC[C@H](C)[C@H](N)C(=O)O` [isoleucine], the hydropathy index is given as 4.5. On to `NCCCC[C@H](N)C(=O)O` [lysine], for which the hydropathy index was −3.9. In the case of `CC(C)[C@H](N)C(=O)O` [valine], the hydropathy index is reported as 4.2.
